According to patent publication US9572786B2, “Use of capsiate or dihydrocapsidate” (Catholic University Industry Academy Cooperation Foundation, priority 2007, dated 2017):

Tests used:
MMP-2 = assay: Zymography of secreted MMP-2 after UV; type: cell-based, human; details: HaCaT culture medium; 10, 25, 50 μM; UV 100 J/m^2; 36 hours
Method: Zymography was carried out in order to investigate the decrease of expression and activity of MMP-2 and MMP-9 in protein level.
5×10^5 HaCaT cells were placed on a 60 mm Petri dish and cultured for 24 hours in DMEM containing 10% FBS. Subsequently, the cells were cultured for 24 hours in DMEM containing 1% FBS until starvation. Then, after treating with capsiate at different concentrations (10 μM, 25 μM, 50 μM) for 30 minutes, followed by washing 3 times with PBS, UV was irradiated at an intensity of 100 J/m^2. Immediately after the UV irradiation, the cells were washed again with PBS and further cultured for 36 hours in DMEM containing 1% FBS, which was treated with capsiate at the same concentration as in the pre-treatment. After collecting the culture medium, the activity of MMP-2 and MMP-9 proteins secreted from the cells into the medium was measured. To this end, the mediums obtained from the same number of cells were concentrated to the same volume, and the temperature was maintained at 4° C. in order to avoid the effect on the protein activity.
Thus prepared sample was subjected to electrophoresis at 4° C. using 7.5% acrylamide gel containing gelatin but without sodium dodecyl sulfate (SDS). […]

ERK = assay: MAPK signaling after UV, Western blotting: ERK; type: cell-based, human; details: HaCaT cells; 10, 25, 50 μM; 30 minutes after UV irradiation
Method: Western blotting was performed in the same manner as in Example 2-1 in order to identify the factor that affects the COX-2 expression regulated by capsiate, except for treating the cells with capsiate at different concentrations (10 μM, 25 μM and 50 μM) prior to UV irradiation, and using rabbit anti-ERK antibody, rabbit anti-p-ERK antibody, rabbit anti-p38 antibody, rabbit anti-p-p38 antibody, rabbit anti-JNK antibody and rabbit anti-p-JNK antibody (cell signaling), and anti-rabbit IgG-HRP conjugation antibody (Zymed) as the secondary antibody, 30 minutes after UV irradiation.

PECAM-1 (CD31) = assay: PECAM-1 expression in mouse skin, immunohistochemical staining; type: in vivo; details: mouse skin tissue of Example 5; treated prior to UV irradiation
Method: In order to investigate the effect of capsiate on various intracellular angiogenesis-related expression factors, the inhibition effect of capsiate on angiogenesis factors induced by UV was evaluated using the mouse tissue of Example 5.
To investigate this effect, the paraffin-embedded tissue prepared as in Example 6 was processed in the same manner as Example 6, treated with PECAM-1 antibody (1:100, BD Pharmingen, USA) on a slide, treated with biotinylated secondary antibody (DAKO code K0675; DAKO Corp., USA) for 30 minutes, and washed 3 times. After treatment with streptavidin-peroxidase (DAKO code K0675, DAKO Corp., USA) for 30 minutes, followed by washing 3 times with PBS, the tissue was stained using DAB (DAKO Corp., USA) for confirmation of the level of PECAM-1 expression.

TNF-α = assay: UV-induced pro-inflammatory cytokine mRNA, RT-PCR: TNF-α; type: cell-based, human; details: HaCaT cells; 10, 25, 50 μM; UV 100 J/m^2; 4 hours
Method: 1×10^6 HaCaT cells were placed on a 100 mm Petri dish and cultured for 24 hours in DMEM containing 10% FBS. Subsequently, the cells were cultured for 24 hours in DMEM containing 1% FBS until starvation. Then, after treating with capsiate at different concentrations (10 μM, 25 μM, 50 μM) for 30 minutes, followed by washing 3 times with PBS, UV was irradiated at an intensity of 100 J/m^2 to induce the production of cytokines. Immediately after the UV irradiation, the cells were washed again with PBS and further cultured for 4 hours in DMEM containing 1% FBS, which was treated with capsiate at the same concentration as in the pre-treatment.
Then, the degree of mRNA expression for IL-6, IL-8 and TNF-α induced mainly in the skin by the UV irradiation was evaluated by RT-PCR in order to measure the inhibition effect against the pro-inflammatory cytokines.
RNAs were extracted from the cells of each test group using Trizol (Invitrogen, USA) and used as template for PCR (PTC-225 Peltier thermal cycler, MJ Research, USA) to prepare cDNAs for each test group. Using the resultant cDNAs as template, the degree of mRNA expression for IL-6, IL-8 and TNF-α was measured by RT-PCR (Roter Gene 6000 series, Corbett Research, Australia) using commercial IL-6, IL-8 and TNF-α primers. […]

NF-κB = assay: UV-induced NF-κB activation, immunohistochemical staining; type: cell-based, human; details: HaCaT cells; 25 μM; UV 100 J/m^2; 4 hours
Method: In order to investigate whether the transcription factor NF-κB is activated, the human keratinocyte cell line HaCaT cells were stained by immunohistochemical staining as follows.
The cells were placed on a 14 mm culture slide and cultured for 24 hours in DMEM containing 10% FBS. Subsequently, the cells were cultured for 24 hours in DMEM containing 1% FBS until starvation. Then, after treating with 25 μM capsiate for 30 minutes, followed by washing 3 times with PBS, UV was irradiated at an intensity of 100 J/m^2. Immediately after the UV irradiation, the cells were washed again with PBS and further cultured for 4 hours in DMEM containing 1% FBS, which was treated with capsiate at the same concentration as in the pre-treatment. The cells were fixed for 5 minutes using methanol for immunohistochemical staining.
The fixed cells were blocked using 10% normal goat serum and washed 3 times with PBS. After fluorescence staining NF-κB using rabbit anti-NF-κB antibody (Santa Cruz, USA) and Alexa 488-labeled anti-rabbit IgG secondary antibody (Invitrogen, USA), counter staining was carried out using Hoechst (Sigma, St. Louis, Mo.).

SMILES: COc1cc(COC(=O)CCCC/C=C/C(C)C)ccc1O [capsiate]
- expression and activity of MMP-2 (zymography) (MMP-2): inhibited expression and activity
- expression and activity of pro-MMP-2 (zymography) (MMP-2): inhibited expression and activity
- phosphorylation of ERK (ERK): inhibited
- level of PECAM-1 expression (PECAM-1 (CD31)): significantly lower
- expression of TNF-α (mRNA) increased by UV irradiation (TNF-α): significantly decreases
- UV-induced migration of NF-κB into the nuclei (NF-κB): inhibits
